Assay results from ChEMBL document CHEMBL1629456, “ApoA-I mimetic peptides promote pre-β HDL formation in vivo causing remodeling of HDL and triglyceride accumulation at higher dose” (Bioorg Med Chem, 2010).
pEC50: −log10 of the molar value. *1 amine or outer side, *2 acyl side, *3 side chain or, on linkers, in order; H or OH if unused. Where a SMILES comes first, the peptide text is derived from it. [ ]: non-standard residue; d: D form. dGly(6-heptenyl) = C=CCCCCC[C@@H](N)C(=O)O; Ala(5-hexenyl) = C=CCCCCC[C@H](N)C(=O)O; X1 = CCCCCCC[C@H](N[*:1])C(=O)[*:2]

Biological target: Phospholipid-transporting ATPase ABCA1 (Mus musculus, UniProt P41233)
Assay: Induction of ABCA1-mediated [3H]cholesterol efflux in mouse RAW 264.7 macrophages after 24 hrs

Phospholipid-transporting ATPase ABCA1, sequence (P41233 whole entry): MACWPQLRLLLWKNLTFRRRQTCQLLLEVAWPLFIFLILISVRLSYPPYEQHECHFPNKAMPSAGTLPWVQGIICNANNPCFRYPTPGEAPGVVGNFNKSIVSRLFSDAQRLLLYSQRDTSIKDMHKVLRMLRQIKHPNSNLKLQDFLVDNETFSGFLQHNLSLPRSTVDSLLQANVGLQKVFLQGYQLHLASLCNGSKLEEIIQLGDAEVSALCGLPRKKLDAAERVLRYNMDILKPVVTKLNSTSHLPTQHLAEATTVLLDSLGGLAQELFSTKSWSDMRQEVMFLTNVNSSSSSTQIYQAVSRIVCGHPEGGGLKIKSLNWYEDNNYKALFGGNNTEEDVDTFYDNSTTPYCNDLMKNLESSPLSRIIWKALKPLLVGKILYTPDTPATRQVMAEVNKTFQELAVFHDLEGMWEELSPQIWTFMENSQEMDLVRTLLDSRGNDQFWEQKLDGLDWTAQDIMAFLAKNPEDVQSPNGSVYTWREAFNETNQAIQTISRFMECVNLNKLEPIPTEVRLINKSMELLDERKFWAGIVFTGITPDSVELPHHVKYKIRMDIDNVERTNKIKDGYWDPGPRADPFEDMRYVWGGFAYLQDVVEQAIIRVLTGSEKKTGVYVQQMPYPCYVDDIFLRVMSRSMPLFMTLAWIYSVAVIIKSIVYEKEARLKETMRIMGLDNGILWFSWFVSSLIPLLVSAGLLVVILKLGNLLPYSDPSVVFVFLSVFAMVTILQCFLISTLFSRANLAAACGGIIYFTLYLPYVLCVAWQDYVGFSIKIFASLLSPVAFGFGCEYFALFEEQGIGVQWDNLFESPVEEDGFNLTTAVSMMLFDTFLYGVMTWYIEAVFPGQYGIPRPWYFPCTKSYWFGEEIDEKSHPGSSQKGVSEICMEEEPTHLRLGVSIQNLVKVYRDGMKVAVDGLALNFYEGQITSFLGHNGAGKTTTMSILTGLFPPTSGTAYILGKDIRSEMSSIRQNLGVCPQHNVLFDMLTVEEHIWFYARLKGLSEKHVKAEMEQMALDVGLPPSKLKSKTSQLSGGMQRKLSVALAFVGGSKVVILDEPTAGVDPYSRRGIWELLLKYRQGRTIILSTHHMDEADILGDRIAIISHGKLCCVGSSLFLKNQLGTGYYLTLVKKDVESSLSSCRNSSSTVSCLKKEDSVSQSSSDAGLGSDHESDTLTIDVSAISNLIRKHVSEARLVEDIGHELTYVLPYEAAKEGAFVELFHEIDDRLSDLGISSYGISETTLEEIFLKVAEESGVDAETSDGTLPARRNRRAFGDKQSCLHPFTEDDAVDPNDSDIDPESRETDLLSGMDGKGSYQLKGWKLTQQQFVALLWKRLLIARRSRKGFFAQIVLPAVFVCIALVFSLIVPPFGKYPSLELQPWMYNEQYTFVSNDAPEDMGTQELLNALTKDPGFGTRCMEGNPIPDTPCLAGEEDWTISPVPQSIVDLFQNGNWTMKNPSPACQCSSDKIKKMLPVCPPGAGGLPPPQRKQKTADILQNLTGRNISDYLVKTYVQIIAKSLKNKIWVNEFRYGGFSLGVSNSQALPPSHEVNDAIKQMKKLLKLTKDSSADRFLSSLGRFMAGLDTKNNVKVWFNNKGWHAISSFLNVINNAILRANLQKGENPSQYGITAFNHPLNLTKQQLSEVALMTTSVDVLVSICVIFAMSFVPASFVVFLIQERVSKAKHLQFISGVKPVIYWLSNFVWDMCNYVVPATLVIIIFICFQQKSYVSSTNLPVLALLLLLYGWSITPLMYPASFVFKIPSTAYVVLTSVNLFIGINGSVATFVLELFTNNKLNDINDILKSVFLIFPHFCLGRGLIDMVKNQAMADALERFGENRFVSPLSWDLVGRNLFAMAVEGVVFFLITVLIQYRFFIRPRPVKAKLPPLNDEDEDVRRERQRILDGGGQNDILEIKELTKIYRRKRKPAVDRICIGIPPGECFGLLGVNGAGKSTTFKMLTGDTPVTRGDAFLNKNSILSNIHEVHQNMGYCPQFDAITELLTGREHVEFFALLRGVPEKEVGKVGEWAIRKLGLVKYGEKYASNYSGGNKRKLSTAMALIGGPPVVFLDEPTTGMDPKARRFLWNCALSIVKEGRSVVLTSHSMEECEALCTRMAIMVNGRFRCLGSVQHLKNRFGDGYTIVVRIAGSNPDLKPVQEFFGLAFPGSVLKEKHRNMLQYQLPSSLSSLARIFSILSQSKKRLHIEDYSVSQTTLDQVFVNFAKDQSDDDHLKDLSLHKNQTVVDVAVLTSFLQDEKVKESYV

Row | SMILES | pEC50
1 | C=CCCCCC[C@H](NC(=O)[C@H](CCC(=O)O)NC(=O)[C@H](CC(N)=O)NC(=O)[C@H](CC(C)C)NC(=O)[C@H](CCCCN)NC(=O)[C@H](CCC(=O)O)NC(=O)[C@H](CCCN=C(N)N)NC(=O)[C@H](CCCCCC=C)NC(=O)[C@H](CCC(=O)O)NC(=O)[C@H](CC(=O)O)NC(=O)[C@H](CC(C)C)NC(=O)[C@H](CCCCCC=C)NC(=O)[C@@H]1CCCN1C(C)=O)C(=O)N[C@@H](CC(C)C)C(=O)N[C@@H](CCC(=O)O)C(=O)N[C@@H](C)C(=O)N[C@@H](CC(C)C)C(=O)N[C@@H](CCCCN)C(=O)N[C@@H](CCC(N)=O)C(=O)N[C@@H](CCCCN)C(=O)N[C@@H](CC(C)C)C(=O)N[C@@H](CCCCN)C(N)=O (Ac-P[Ala(5-hexenyl)]LDE[Ala(5-hexenyl)]REKLNE[Ala(5-hexenyl)]LEALKQKLK-NH2) | 5.72
2 | C=CCCCC[C@@H](NC(=O)[C@H](CCC(=O)O)NC(=O)[C@H](CCCNC(=N)N)NC(=O)[C@H](Cc1ccccc1)NC(=O)[C@H](CCC(=O)O)NC(=O)[C@H](CC(=O)O)NC(=O)[C@H](CC(C)C)NC(=O)[C@@H](NC(=O)[C@@H]1CCCN1C(C)=O)C(C)C)C(=O)N[C@@H](CC(C)C)C(=O)N[C@@H](CC(N)=O)C(=O)N[C@@H](CCC(=O)O)C(=O)N[C@@H](CCC(=O)O)C(=O)N[C@@H](CC(C)C)C(=O)N[C@@H](CCC(=O)O)C(=O)N[C@@H](C)C(=O)N[C@@H](CC(C)C)C(=O)N[C@@H](CCCCN)C(=O)N[C@@H](CCC(N)=O)C(=O)N[C@@H](CCCCN)C(=O)N[C@@H](CC(C)C)C(=O)N[C@@H](CCCCN)C(N)=O | < 4.00
3 | C=CCCCCC[C@H](NC(=O)[C@H](CCC(N)=O)NC(=O)[C@H](CCCCN)NC(=O)[C@H](CC(C)C)NC(=O)[C@H](C)NC(=O)[C@H](CCC(=O)O)NC(=O)[C@H](CC(C)C)NC(=O)[C@H](CCCCCC=C)NC(=O)[C@H](CCC(=O)O)NC(=O)[C@H](CC(N)=O)NC(=O)[C@H](CC(C)C)NC(=O)[C@H](CCCCN)NC(=O)[C@H](CCC(=O)O)NC(=O)[C@H](CCCNC(=N)N)NC(=O)[C@H](CCCCCC=C)NC(=O)[C@H](CCC(=O)O)NC(=O)[C@H](CC(=O)O)NC(=O)[C@H](CC(C)C)NC(=O)[C@H](CCCCCC=C)NC(=O)[C@@H]1CCCN1C(C)=O)C(=O)N[C@@H](CC(C)C)C(=O)N[C@@H](CCCCN)C(N)=O (Ac-P[Ala(5-hexenyl)]LDE[Ala(5-hexenyl)]REKLNE[Ala(5-hexenyl)]LEALKQ[Ala(5-hexenyl)]LK-NH2) | 5.17
4 | C=CCCCCC[C@H](NC(=O)[C@H](C)NC(=O)[C@H](CCC(=O)O)NC(=O)[C@H](CC(C)C)NC(=O)[C@H](CCC(=O)O)NC(=O)[C@H](CCC(=O)O)NC(=O)[C@H](CC(N)=O)NC(=O)[C@H](CC(C)C)NC(=O)[C@H](CCCCN)NC(=O)[C@H](CCC(=O)O)NC(=O)[C@H](CCCNC(=N)N)NC(=O)[C@H](Cc1ccccc1)NC(=O)[C@H](CCC(=O)O)NC(=O)[C@H](CC(=O)O)NC(=O)[C@H](CC(C)C)NC(=O)[C@@H](NC(=O)[C@@H]1CCCN1C(C)=O)C(C)C)C(=O)N[C@@H](CCCCN)C(=O)N[C@@H](CCC(N)=O)C(=O)N[C@@H](CCCCN)C(=O)N[C@@H](CC(C)C)C(=O)N[C@@H](CCCCN)C(N)=O | < 4.00
5 | C=CCCCC[C@H](NC(=O)[C@H](CCC(=O)O)NC(=O)[C@H](CC(=O)O)NC(=O)[C@H](CC(C)C)NC(=O)[C@@H](NC(=O)[C@@H]1CCCN1C(C)=O)C(C)C)C(=O)N[C@@H](CCCNC(=N)N)C(=O)N[C@@H](CCC(=O)O)C(=O)N[C@@H](CCCCN)C(=O)N[C@@H](CC(C)C)C(=O)N[C@@H](CC(N)=O)C(=O)N[C@@H](CCC(=O)O)C(=O)N[C@@H](CCC(=O)O)C(=O)N[C@@H](CC(C)C)C(=O)N[C@@H](CCC(=O)O)C(=O)N[C@@H](C)C(=O)N[C@@H](CC(C)C)C(=O)N[C@@H](CCCCN)C(=O)N[C@@H](CCC(N)=O)C(=O)N[C@@H](CCCCN)C(=O)N[C@@H](CC(C)C)C(=O)N[C@@H](CCCCN)C(N)=O | < 4.00
6 | C=CCCCCC[C@@H](NC(=O)[C@H](CCCCN)NC(=O)[C@H](CCC(N)=O)NC(=O)[C@H](CCCCN)NC(=O)[C@H](CC(C)C)NC(=O)[C@H](C)NC(=O)[C@H](CCC(=O)O)NC(=O)[C@H](CC(C)C)NC(=O)[C@H](CCC(=O)O)NC(=O)[C@H](CCC(=O)O)NC(=O)[C@H](CC(N)=O)NC(=O)[C@H](CC(C)C)NC(=O)[C@H](CCCCN)NC(=O)[C@H](CCC(=O)O)NC(=O)[C@H](CCCNC(=N)N)NC(=O)[C@H](Cc1ccccc1)NC(=O)[C@H](CCC(=O)O)NC(=O)[C@H](CC(=O)O)NC(=O)[C@H](CC(C)C)NC(=O)[C@@H](NC(=O)[C@@H]1CCCN1C(C)=O)C(C)C)C(=O)N[C@@H](CCCCN)C(N)=O | < 4.00
7 | C=CCCCC[C@H](NC(=O)[C@H](CCCCN)NC(=O)[C@H](CCC(N)=O)NC(=O)[C@H](CCCCN)NC(=O)[C@H](CC(C)C)NC(=O)[C@H](C)NC(=O)[C@H](CCC(=O)O)NC(=O)[C@H](CC(C)C)NC(=O)[C@H](CCC(=O)O)NC(=O)[C@H](CCC(=O)O)NC(=O)[C@H](CC(N)=O)NC(=O)[C@H](CC(C)C)NC(=O)[C@H](CCCCN)NC(=O)[C@H](CCC(=O)O)NC(=O)[C@H](CCCNC(=N)N)NC(=O)[C@H](Cc1ccccc1)NC(=O)[C@H](CCC(=O)O)NC(=O)[C@H](CC(=O)O)NC(=O)[C@H](CC(C)C)NC(=O)[C@@H](NC(=O)[C@@H]1CCCN1C(C)=O)C(C)C)C(=O)N[C@@H](CCCCN)C(N)=O | < 4.00
8 | C=CCCCC[C@@H](NC(=O)[C@H](CCCCN)NC(=O)[C@H](CCC(N)=O)NC(=O)[C@H](CCCCN)NC(=O)[C@H](CC(C)C)NC(=O)[C@H](C)NC(=O)[C@H](CCC(=O)O)NC(=O)[C@H](CC(C)C)NC(=O)[C@H](CCC(=O)O)NC(=O)[C@H](CCC(=O)O)NC(=O)[C@H](CC(N)=O)NC(=O)[C@H](CC(C)C)NC(=O)[C@H](CCCCN)NC(=O)[C@H](CCC(=O)O)NC(=O)[C@H](CCCNC(=N)N)NC(=O)[C@H](Cc1ccccc1)NC(=O)[C@H](CCC(=O)O)NC(=O)[C@H](CC(=O)O)NC(=O)[C@H](CC(C)C)NC(=O)[C@@H](NC(=O)[C@@H]1CCCN1C(C)=O)C(C)C)C(=O)N[C@@H](CCCCN)C(N)=O | < 4.00

Results, then the molecule that gave them:

Row | pEC50 | SMILES
9 | < 4.00 | C=CCCCC[C@@H](NC(=O)[C@@H]1CCCN1C(C)=O)C(=O)N[C@@H](CC(C)C)C(=O)N[C@@H](CC(=O)O)C(=O)N[C@@H](CCC(=O)O)C(=O)N[C@@H](Cc1ccccc1)C(=O)N[C@@H](CCCN=C(N)N)C(=O)N[C@@H](CCC(=O)O)C(=O)N[C@@H](CCCCN)C(=O)N[C@@H](CC(C)C)C(=O)N[C@@H](CC(N)=O)C(=O)N[C@@H](CCC(=O)O)C(=O)N[C@@H](CCC(=O)O)C(=O)N[C@@H](CC(C)C)C(=O)N[C@@H](CCC(=O)O)C(=O)N[C@@H](C)C(=O)N[C@@H](CC(C)C)C(=O)N[C@@H](CCCCN)C(=O)N[C@@H](CCC(N)=O)C(=O)N[C@@H](CCCCN)C(=O)N[C@@H](CC(C)C)C(=O)N[C@@H](CCCCN)C(N)=O
10 | 6.15 | CCCCCCC[C@H](NC(=O)[C@H](CCC(=O)O)NC(=O)[C@H](CC(N)=O)NC(=O)[C@H](CC(C)C)NC(=O)[C@H](CCCCN)NC(=O)[C@H](CCC(=O)O)NC(=O)[C@H](CCCN=C(N)N)NC(=O)[C@H](Cc1ccccc1)NC(=O)[C@H](CCC(=O)O)NC(=O)[C@H](CC(=O)O)NC(=O)[C@H](CC(C)C)NC(=O)[C@@H](NC(=O)[C@@H]1CCCN1C(C)=O)C(C)C)C(=O)N[C@@H](CC(C)C)C(=O)N[C@@H](CCC(=O)O)C(=O)N[C@@H](C)C(=O)N[C@@H](CC(C)C)C(=O)N[C@@H](CCCCN)C(=O)N[C@@H](CCC(N)=O)C(=O)N[C@@H](CCCCN)C(=O)N[C@@H](CC(C)C)C(=O)N[C@@H](CCCCN)C(N)=O (Ac-PVLDEFREKLNE[X1]LEALKQKLK-NH2)
11 | 5.02 | C=CCCCCC[C@@H](NC(=O)[C@H](CCC(=O)O)NC(=O)[C@H](CC(N)=O)NC(=O)[C@H](CC(C)C)NC(=O)[C@H](CCCCN)NC(=O)[C@H](CCC(=O)O)NC(=O)[C@H](CCCN=C(N)N)NC(=O)[C@H](Cc1ccccc1)NC(=O)[C@H](CCC(=O)O)NC(=O)[C@H](CC(=O)O)NC(=O)[C@H](CC(C)C)NC(=O)[C@@H](NC(=O)[C@@H]1CCCN1C(C)=O)C(C)C)C(=O)N[C@@H](CC(C)C)C(=O)N[C@@H](CCC(=O)O)C(=O)N[C@@H](C)C(=O)N[C@@H](CC(C)C)C(=O)N[C@@H](CCCCN)C(=O)N[C@@H](CCC(N)=O)C(=O)N[C@@H](CCCCN)C(=O)N[C@@H](CC(C)C)C(=O)N[C@@H](CCCCN)C(N)=O (Ac-PVLDEFREKLNE[dGly(6-heptenyl)]LEALKQKLK-NH2)
12 | < 4.00 | C=CCCCCC[C@@H](NC(=O)[C@H](CCC(=O)O)NC(=O)[C@H](CCC(=O)O)NC(=O)[C@H](CC(N)=O)NC(=O)[C@H](CC(C)C)NC(=O)[C@H](CCCCN)NC(=O)[C@H](CCC(=O)O)NC(=O)[C@H](CCCN=C(N)N)NC(=O)[C@H](Cc1ccccc1)NC(=O)[C@H](CCC(=O)O)NC(=O)[C@H](CC(=O)O)NC(=O)[C@H](CC(C)C)NC(=O)[C@@H](NC(=O)[C@@H]1CCCN1C(C)=O)C(C)C)C(=O)N[C@@H](CCC(=O)O)C(=O)N[C@@H](C)C(=O)N[C@@H](CC(C)C)C(=O)N[C@@H](CCCCN)C(=O)N[C@@H](CCC(N)=O)C(=O)N[C@@H](CCCCN)C(=O)N[C@@H](CC(C)C)C(=O)N[C@@H](CCCCN)C(N)=O
13 | 5.62 | C=CCCCCC[C@H](NC(=O)[C@H](CCC(=O)O)NC(=O)[C@H](CC(N)=O)NC(=O)[C@H](CC(C)C)NC(=O)[C@H](CCCCN)NC(=O)[C@H](CCC(=O)O)NC(=O)[C@H](CCCNC(=N)N)NC(=O)[C@H](Cc1ccccc1)NC(=O)[C@H](CCC(=O)O)NC(=O)[C@H](CC(=O)O)NC(=O)[C@H](CC(C)C)NC(=O)[C@@H](NC(=O)[C@@H]1CCCN1C(C)=O)C(C)C)C(=O)N[C@@H](CC(C)C)C(=O)N[C@@H](CCC(=O)O)C(=O)N[C@@H](C)C(=O)N[C@@H](CC(C)C)C(=O)N[C@@H](CCCCN)C(=O)N[C@@H](CCC(N)=O)C(=O)N[C@@H](CCCCN)C(=O)N[C@@H](CC(C)C)C(=O)N[C@@H](CCCCN)C(N)=O (Ac-PVLDEFREKLNE[Ala(5-hexenyl)]LEALKQKLK-NH2)
14 | < 4.00 | C=CCCCCC[C@@H](NC(=O)[C@H](CCCCN)NC(=O)[C@H](CCC(=O)O)NC(=O)[C@H](CCCN=C(N)N)NC(=O)[C@H](Cc1ccccc1)NC(=O)[C@H](CCC(=O)O)NC(=O)[C@H](CC(=O)O)NC(=O)[C@H](CC(C)C)NC(=O)[C@@H](NC(=O)[C@@H]1CCCN1C(C)=O)C(C)C)C(=O)N[C@@H](CC(N)=O)C(=O)N[C@@H](CCC(=O)O)C(=O)N[C@@H](CCC(=O)O)C(=O)N[C@@H](CC(C)C)C(=O)N[C@@H](CCC(=O)O)C(=O)N[C@@H](C)C(=O)N[C@@H](CC(C)C)C(=O)N[C@@H](CCCCN)C(=O)N[C@@H](CCC(N)=O)C(=O)N[C@@H](CCCCN)C(=O)N[C@@H](CC(C)C)C(=O)N[C@@H](CCCCN)C(N)=O
